# Measured values published in article PMC5795001, “The activity of the C4-dicarboxylic acid chemoreceptor of Pseudomonas aeruginosa is controlled by chemoattractants and antagonists” (Scientific Reports, 2018).
# Entries after “also recorded” stand apart in the source; their conditions may differ.
# Assays:
# [1] = test system: Pseudomonas aeruginosa PAO1 cheA1 mutant; assay: Capillary chemotaxis assay, cheA1 mutant; format: cell-based; settings: 10 mM L-malic acid
# Method: (§1) A recent bioinformatic study has predicted that PA2652 signals through the che pathway. To verify this prediction we conducted chemotaxis assays to L-malic acid using the wt strain as well as mutants in cheA1 and cheA2, encoding respectively the histidine kinases of the che and che2 pathways.
# (§2) Overnight cultures of P. aeruginosa strains were diluted to an OD660 of 0.05 in MS medium (30 mM Na2HPO4, 20 mM KH2PO4, 25 mM NH4NO3, 1 mM MgSO4) supplemented with 6 mg l^−1 Fe-citrate, trace elements[81] and 15 mM glucose as carbon source, and grown at 37 °C with orbital shaking (200 rpm). At an OD660 of 0.4 ([…]) cultures were centrifuged at 1,700 × g for 5 min and the resulting pellet was washed twice with chemotaxis buffer (50 mM potassium phosphate, […], 0.05% (v/v) glycerol, pH 7.0). Subsequently, the cells were resuspended in the same buffer, adjusted to an OD660 of 0.1 and 230 µl aliquots of the bacterial cultures were placed into 96-well plates. For the quantitative assays, one-microliter capillary tubes (Microcaps, Drummond Scientific, Ref. P1424) were heat-sealed at one end and filled with either the chemotaxis buffer (negative control) or chemotaxis buffer containing the chemoeffectors to test. The capillaries were immersed into the bacterial suspensions at its open end. […] The number of colony forming units was determined after overnight incubation. […]
# PA2652-LBD = target: T1, PA2652-LBD (Pseudomonas aeruginosa, UniProt Q9I0I6); assay: Sedimentation velocity analytical ultracentrifugation; parameters: species or system Pseudomonas aeruginosa PAO1; settings: 1 mM L-malic acid, protein 5-20 µM, 7 °C, PIPES buffer
# T1 construct: The DNA fragment encoding the LBD of PA2652 (Lys^34–Thr^205) was amplified; His-tag (vector-encoded by pET28b(+) via NdeI site); made in house; host or cells: Escherichia coli BL21 (DE3)
# Method: To address this issue, PA2652-LBD was analysed by sedimentation velocity analytical ultracentrifugation (AUC). Initial experiments were conducted using concentrations of ligand-free protein ranging from 5 to 20 µM. […] The molecular weight extracted from the sedimentation coefficient and the shape was of 41 kDa. Considering that the sequence-derived mass of the PA2652-LBD monomer is 21.5 kDa, the observed species is clearly a protein dimer. Since no shift to higher sedimentation coefficients was measured with increasing protein concentrations (data not shown), the dimer species can be considered stable over the protein concentration range analysed. The above experiments were also performed in the presence of saturating concentrations of L-malic acid.
# Experiments were performed on a Beckman Coulter Optima XL-A analytical ultracentrifuge (Beckman-Coulter, Palo Alto, CA, USA) equipped with UV-visible absorbance detection system, using an An50Ti 8-hole rotor and 12 mm path-length charcoal-filled epon double-sector centrepieces. […] Light at a wavelength of 234 nm was recorded in the absorbance optics mode. […] Buffer density (ρ = 1.0015 g/mL) and viscosity (η = 0.01449 Poise) at 7 °C were calculated from the buffer composition using SEDNTERP software. […]
# [2] = test system: Pseudomonas aeruginosa PAO1 (wt and PA2652 mutant); assay: Growth experiments with ligands as sole carbon source; format: cell-based; settings: M9 minimal medium, 10 mM carbon source
# Text: To evaluate the physiological relevance of the ligands identified, we first addressed the question of whether they could support bacterial growth as sole carbon source. To this end, we conducted growth experiments of the wild type (wt) strain and a mutant defective in PA2652 in minimal medium supplemented with the different ligands as sole carbon sources.
# Bacterial strains used in this study are listed in Supplementary Table S3. Pseudomonas aeruginosa PAO1 and its derivative strains were routinely grown at 37 °C in Luria Broth (LB; 5 g yeast extract l^−1, 10 g Bacto tryptone l^−1 and 5 g NaCl l^−1) or M9 medium supplemented with 1 mM MgSO4, 6 mg l^−1 Fe-citrate, trace elements[81] and 15 mM glucose as carbon source. For growth experiments to assess the capacity of PA2652-LBD ligands to support growth a sole C-source, PAO1 cells were pre-cultured overnight in M9 medium supplemented with 10 mM glucose and washed twice with M9 medium salts, prior to the inoculation of M9 medium containing10 mM of the different carbon sources. When necessary, the pH of the medium was adjusted to 7.0 prior to inoculation. Bacterial growth over the time was monitored using Bioscreen Microbiological Growth Analyser (Oy Growth Curves Ab Ltd, Helsinki, Finland). Escherichia coli strains were grown at 37 °C in LB. Escherichia coli DH5α was used as a host for gene cloning. When appropriate, antibiotics were used at the following final concentrations (in µg ml^−1): kanamycin, 25 (E. coli strains) and 100 (Pseudomonas strains); tetracycline, 40.
# [3] = test system: Pseudomonas aeruginosa PAO1 cheA2 mutant; assay: Capillary chemotaxis assay, cheA2 mutant; format: cell-based; settings: 10 mM L-malic acid
# Method: as §1, §2
# [4] = test system: Pseudomonas aeruginosa PAO1; assay: Quantitative capillary chemotaxis assay, wild type; format: cell-based
# Method: Secondly, we assessed the capacity of the ligands identified to induce chemotaxis. To this end, we carried out quantitative capillary chemotaxis assays using the wt strain and PA2652 ligands at concentrations ranging from 10 µM to 100 mM.
# Overnight cultures of P. aeruginosa strains were diluted to an OD660 of 0.05 in MS medium (30 mM Na2HPO4, 20 mM KH2PO4, 25 mM NH4NO3, 1 mM MgSO4) supplemented with 6 mg l^−1 Fe-citrate, trace elements[81] and 15 mM glucose as carbon source, and grown at 37 °C with orbital shaking (200 rpm). At an OD660 of 0.4 ([…]) cultures were centrifuged at 1,700 × g for 5 min and the resulting pellet was washed twice with chemotaxis buffer (50 mM potassium phosphate, […], 0.05% (v/v) glycerol, pH 7.0). Subsequently, the cells were resuspended in the same buffer, adjusted to an OD660 of 0.1 and 230 µl aliquots of the bacterial cultures were placed into 96-well plates. For the quantitative assays, one-microliter capillary tubes (Microcaps, Drummond Scientific, Ref. P1424) were heat-sealed at one end and filled with either the chemotaxis buffer (negative control) or chemotaxis buffer containing the chemoeffectors to test. The capillaries were immersed into the bacterial suspensions at its open end. After 30 min at room temperature, capillaries were removed from the bacterial suspensions, rinsed with sterile water and the content expelled into 1 ml of M9 medium salts. Serial dilutions were plated onto M9 minimal medium (containing the appropriate antibiotics) supplemented with 15 mM glucose as carbon source. The number of colony forming units was determined after overnight incubation. In all cases, data were corrected with the number of cells that swam into buffer containing capillaries.
# T1 sequence (Q9I0I6 34-205): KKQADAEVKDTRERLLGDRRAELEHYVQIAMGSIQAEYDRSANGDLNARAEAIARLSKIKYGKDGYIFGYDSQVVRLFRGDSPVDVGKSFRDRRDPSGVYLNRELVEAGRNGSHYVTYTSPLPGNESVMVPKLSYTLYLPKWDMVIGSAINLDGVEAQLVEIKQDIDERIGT
smiles,measurement,setting,value
O=C(O)C[C@H](O)C(=O)O [L-malic acid],Chemotaxis in cheA1 mutant,[1],abolished chemotaxis; also recorded: no response was observed
same,Effect of ligand binding on oligomerization state of PA2652-LBD,PA2652-LBD,does not have any significant effects on the oligomerization state
same,Ability to support bacterial growth as sole carbon source,[2],able to efficiently sustain growth
same,Chemotaxis in cheA2 mutant,[3],almost identical to that of wt strain; also recorded: indistinguishable from that of the wt
same,Role of PA2652 ligand (chemoattractant or antagonist),[4]; authors' classification from chemotaxis results,chemoattractants
same,Chemotactic response,"[4]; wt PAO1, ligands at 10 µM to 100 mM",strong chemotaxis responses
